The structures appear in SMILES notation.

The values below come from ChEMBL document CHEMBL5729382, “Inhibitors of cysteine proteases and methods of use thereof” (2022).

The assay in a line: Evaluation of Antiviral Activity of Compounds Against Human Coronavirus (HCov) 229E: Compounds were assayed using standard methods against multiple coronaviral strains, including HCoV 229E and OC43 strains. […] The antiviral activity of compounds was calculated based on the protection of the virus-induced CPE at each concentration normalized by the virus control.

Consider `N#CC1(NC(=O)[C@@H](CC2CC2)NC(=O)OCc2ccccc2)C[C@H]2CC[C@@H]1[C@H]1C(=O)NC(=O)[C@@H]21` (single isomer, unassigned; isomer 1), for which the 50% inhibitory concentration (IC50) was more than 30 µM. As for `COc1cccc2[nH]c(C(=O)N[C@H](CC3CC3)C(=O)N[C@@]3(C#N)CC4CCC3[C@H]3C(=O)NC(=O)[C@@H]43)cc12` (single isomer, unassigned; isomer 1), the figure is more than 30 µM.
